Test results from ChEMBL document CHEMBL2150876, “Cosmomycin C inhibits signal transducer and activator of transcription 3 (STAT3) pathways in MDA-MB-468 breast cancer cell” (Bioorg Med Chem, 2011).
Values belong to the molecule of their own block, whether it stands above or below them. The source made the active and inactive calls. The calls are words filed in the database; no cut-off is given here.

How the values were obtained:
[1] = biological target: Signal transducer and activator of transcription 3 (Homo sapiens) (UniProt P40763); test: Inhibition of STAT3 expressed in human HeLa cells after 24 hrs by renilla dual-luciferase reporter gene assay; type: cell-based
Sequence of Signal transducer and activator of transcription 3 (Homo sapiens) (P40763 whole entry): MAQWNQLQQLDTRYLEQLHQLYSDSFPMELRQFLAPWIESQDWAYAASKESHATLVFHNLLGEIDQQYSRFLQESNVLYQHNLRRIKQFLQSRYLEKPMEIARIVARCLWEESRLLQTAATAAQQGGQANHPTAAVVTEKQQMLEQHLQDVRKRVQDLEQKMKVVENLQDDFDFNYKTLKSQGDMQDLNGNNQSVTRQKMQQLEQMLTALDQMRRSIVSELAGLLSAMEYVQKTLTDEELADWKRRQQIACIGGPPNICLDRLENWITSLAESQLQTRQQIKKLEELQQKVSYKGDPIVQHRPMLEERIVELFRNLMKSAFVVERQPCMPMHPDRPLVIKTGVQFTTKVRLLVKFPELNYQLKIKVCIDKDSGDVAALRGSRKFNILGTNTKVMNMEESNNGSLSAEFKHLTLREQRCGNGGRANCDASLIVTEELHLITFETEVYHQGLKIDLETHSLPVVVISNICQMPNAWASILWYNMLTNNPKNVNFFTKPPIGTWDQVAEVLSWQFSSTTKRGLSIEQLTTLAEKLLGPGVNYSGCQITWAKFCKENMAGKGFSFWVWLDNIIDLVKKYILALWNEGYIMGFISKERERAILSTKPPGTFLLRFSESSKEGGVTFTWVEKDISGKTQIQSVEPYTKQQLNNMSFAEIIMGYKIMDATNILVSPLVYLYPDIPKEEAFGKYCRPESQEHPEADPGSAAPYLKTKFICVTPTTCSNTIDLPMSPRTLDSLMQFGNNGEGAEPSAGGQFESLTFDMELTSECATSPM

MDA-MB-468 [2] = test: Effect on STAT3 protein level in human MDA-MB-468 cells after 24 hrs by Western blot analysis; type: functional, cell-based
MDA-MB-468 [3] = test: Cytotoxicity against human MDA-MB-468 cells assessed as cell viability after 24 hrs by WST1 assay; type: functional, cell-based
DU-145 = test: Cytotoxicity against human DU145 cells assessed as cell viability after 24 hrs by WST1 assay; type: functional, cell-based
HCT-116 = test: Cytotoxicity against human HCT116 cells assessed as cell viability at 10 to 500 nM after 24 hrs by WST1 assay; type: functional, cell-based
[4] = biological target: Signal transducer and activator of transcription 3 (Homo sapiens) (UniProt P40763); test: Inhibition of STAT3 phosphorylation at Tyr705 in human MDA-MB-468 cells after 24 hrs by Western blot analysis; type: cell-based
MCF7 = test: Cytotoxicity against human MCF7 cells assessed as cell viability at 10 to 500 nM after 24 hrs by WST1 assay; type: functional, cell-based
MDA-MB-468 [5] = test: Cell cycle arrest in human MDA-MB-468 cells assessed as accumulation at G0/G1 phase at 500 nM after 24 hrs using propidium iodide staining by FACS flow cytometry (reference value: 49.13%); type: functional
[6] = biological target: Signal transducer and activator of transcription 3 (Homo sapiens) (UniProt P40763); test: Suppression of STAT3 mediated VEGF expression in human MDA-MB-468 cells by immunoblotting assay; type: cell-based
MDA-MB-468 [7] = test: Induction apoptosis in human MDA-MB-468 cells assessed as procaspase-3-mediated PARP cleavage after 24 hrs by Western blotting method; type: functional, cell-based
[8] = biological target: Signal transducer and activator of transcription 3 (Homo sapiens) (UniProt P40763); test: Suppression of STAT3 mediated survivin expression in human MDA-MB-468 cells by immunoblotting assay; type: cell-based
MDA-MB-468 [9] = test: Cell cycle arrest in human MDA-MB-468 cells assessed as accumulation at S phase at 50 nM after 24 hrs using propidium iodide staining by FACS flow cytometry (reference value: 12.46%); type: functional
[10] = biological target: Signal transducer and activator of transcription 3 (Homo sapiens) (UniProt P40763); test: Suppression of STAT3 mediated cyclinD1 expression in human MDA-MB-468 cells by immunoblotting assay; type: cell-based
MDA-MB-468 [11] = test: Cell cycle arrest in human MDA-MB-468 cells assessed as accumulation at G2/M phase at 200 nM after 24 hrs using propidium iodide staining by FACS flow cytometry (reference value: 31.39%); type: functional
[12] = biological target: Signal transducer and activator of transcription 3 (Homo sapiens) (UniProt P40763); test: Suppression of STAT3 mediated Mcl-1 expression in human MDA-MB-468 cells assessed as complete inhibition at 200 nM by immunoblotting assay; type: cell-based
[13] = biological target: Signal transducer and activator of transcription 3 (Homo sapiens) (UniProt P40763); test: Inhibition of translocation of STAT3 into nucleus in human MDA-MB-468 cells assessed as localization in cytoplasm at 200 nM after 24 hrs […] by Western blotting method; type: cell-based
[14] = biological target: Signal transducer and activator of transcription 3 (Homo sapiens) (UniProt P40763); test: Inhibition of STAT3 phosphorylation at Ser727 in human MDA-MB-468 cells after 24 hrs by Western blot analysis; type: cell-based
[15] = biological target: Signal transducer and activator of transcription 3 (Homo sapiens) (UniProt P40763); test: Inhibition of translocation of STAT3 into nucleus in human MDA-MB-468 cells at 200 nM after 24 hrs […] by immunoblotting method; type: cell-based
MDA-MB-468 [16] = test: Cell cycle arrest in human MDA-MB-468 cells assessed as accumulation at G2/M phase at 50 nM after 24 hrs using propidium iodide staining by FACS flow cytometry (reference value: 31.39%); type: functional
MDA-MB-468 [17] = test: Cell cycle arrest in human MDA-MB-468 cells assessed as accumulation at subG1 phase at 200 nM after 24 hrs using propidium iodide staining by FACS flow cytometry (reference value: 7.01%); type: functional
MDA-MB-468 [18] = test: Cell cycle arrest in human MDA-MB-468 cells assessed as accumulation at S phase at 200 nM after 24 hrs using propidium iodide staining by FACS flow cytometry (reference value: 12.46%); type: functional
MDA-MB-468 [19] = test: Cell cycle arrest in human MDA-MB-468 cells assessed as accumulation at G0/G1 phase at 50 nM after 24 hrs using propidium iodide staining by FACS flow cytometry (reference value: 49.13%); type: functional
MDA-MB-468 [20] = test: Cell cycle arrest in human MDA-MB-468 cells assessed as accumulation at subG1 phase at 50 nM after 24 hrs using propidium iodide staining by FACS flow cytometry (reference value: 7.01%); type: functional
[21] = biological target: Signal transducer and activator of transcription 3 (Homo sapiens) (UniProt P40763); test: Suppression of STAT3 mediated Bcl-XL expression in human MDA-MB-468 cells by immunoblotting assay; type: cell-based
MDA-MB-468 [22] = test: Cell cycle arrest in human MDA-MB-468 cells assessed as accumulation at S phase at 500 nM after 24 hrs using propidium iodide staining by FACS flow cytometry (reference value: 12.46%); type: functional
MDA-MB-468 [23] = test: Cell cycle arrest in human MDA-MB-468 cells assessed as accumulation at G0/G1 phase at 200 nM after 24 hrs using propidium iodide staining by FACS flow cytometry (reference value: 49.13%); type: functional
[24] = biological target: Signal transducer and activator of transcription 3 (Homo sapiens) (UniProt P40763); test: Suppression of STAT3 mediated Mcl-1 expression in human MDA-MB-468 cells by immunoblotting assay; type: cell-based
MDA-MB-468 [25] = test: Cell cycle arrest in human MDA-MB-468 cells assessed as accumulation at G2/M phase at 500 nM after 24 hrs using propidium iodide staining by FACS flow cytometry (reference value: 31.39%); type: functional
[26] = biological target: Signal transducer and activator of transcription 3 (Homo sapiens) (UniProt P40763); test: Inhibition of STAT3 phosphorylation at Tyr705 in human MDA-MB-468 cells at 500 nM after 24 hrs by Western blot analysis; type: cell-based
[27] = biological target: Signal transducer and activator of transcription 3 (Homo sapiens) (UniProt P40763); test: Suppression of STAT3 mediated cyclinD1 expression in human MDA-MB-468 cells at G0/G1 phase by immunoblotting assay; type: cell-based
MDA-MB-468 [28] = test: Cell cycle arrest in human MDA-MB-468 cells assessed as accumulation at subG1 phase at 500 nM after 24 hrs using propidium iodide staining by FACS flow cytometry (reference value: 7.01%); type: functional
[29] = biological target: Signal transducer and activator of transcription 3 (Homo sapiens) (UniProt P40763); test: Suppression of STAT3 mediated Bcl-XL expression in human MDA-MB-468 cells assessed as complete inhibition at 200 nM by immunoblotting assay; type: cell-based

inhibition [1]: inactive
SMILES: CO[C@H](C(=O)[C@@H](O)[C@@H](C)O)[C@@H]1Cc2cc3cc(O[C@H]4C[C@@H](O[C@@H]5C[C@@H](O)[C@H](O)[C@@H](C)O5)[C@H](O)[C@@H](C)O4)c(C)c(O)c3c(O)c2C(=O)[C@H]1O[C@H]1C[C@@H](O[C@@H]2C[C@@H](O)[C@@H](O[C@@H]3C[C@](C)(O)[C@H](O)[C@@H](C)O3)[C@@H](C)O2)[C@H](O)[C@@H](C)O1

SMILES: CC[C@@]1(O)CCc2c(O)c3c(c(O)c2[C@H]1O[C@H]1C[C@H](N(C)C)[C@@H](O[C@H]2C[C@H](O)[C@@H](O[C@H]4CC[C@H](O)[C@H](C)O4)[C@H](C)O2)[C@H](C)O1)C(=O)c1cccc(O)c1C3=O
Activity (MDA-MB-468 [2]): inactive | Activity (MDA-MB-468 [3]): inactive | Activity (DU-145): inactive | Activity (HCT-116): inactive | inhibition [1]: inactive | inhibition [4]: inactive | Activity (MCF7): inactive

SMILES: CC[C@@]1(O)C[C@H](O[C@H]2C[C@H](N(C)C)[C@@H](O[C@H]3C[C@H](O)[C@@H](O[C@H]4CC[C@H](O)[C@H](C)O4)[C@H](C)O3)[C@H](C)O2)c2c(O)c3c(c(O)c2[C@H]1O[C@H]1C[C@H](N(C)C)[C@@H](O[C@H]2CC[C@H](O[C@H]4CC[C@H](O)[C@H](C)O4)[C@H](C)O2)[C@H](C)O1)C(=O)c1cccc(O)c1C3=O [COSMOMYCIN C]
Activity (MDA-MB-468 [5]): 49.9% | Activity [6]: Dose-dependent effect | Activity (MDA-MB-468 [7]): Active | Activity (MDA-MB-468 [2]): inactive | Activity (MDA-MB-468 [3]): Dose-dependent effect | IC50 (MDA-MB-468 [3]; MDA-MB-468, 24 h): 210 nM | Activity [8]: Dose-dependent effect | Activity (MDA-MB-468 [9]): 10.52% | Activity [10]: Dose-dependent effect | Activity (MDA-MB-468 [11]): 22.18% | Activity [12]: Active | inhibition [13]: Active | Activity (DU-145): Dose-dependent effect | inhibition [14]: inactive | Activity [15]: Active | Activity (HCT-116): inactive | Activity (MDA-MB-468 [16]): 26.91% | Activity (MDA-MB-468 [17]): 9.47% | Activity (MDA-MB-468 [18]): 8.82% | Activity (MDA-MB-468 [19]): 54.64% | Activity (MDA-MB-468 [20]): 7.93% | Activity [21]: Dose-dependent effect | Activity (MDA-MB-468 [22]): 8.78% | inhibition [1]: Dose-dependent effect | Activity (MDA-MB-468 [23]): 59.53% | inhibition [4]: Dose-dependent effect | Activity [24]: Dose-dependent effect | Activity (MDA-MB-468 [25]): 15.81% | inhibition [26]: Active | Activity [27]: Active | Activity (MDA-MB-468 [28]): 25.52% | Activity (MCF7): inactive | Activity [29]: Active
